Data on twelve compounds can be found in ChEMBL document CHEMBL5465560, “Selectivity Literature for EUbOPEN Chemogenomic Library” (2024).

One test deals with Aurora kinase B (Homo sapiens, UniProt Q96GD4). The test is described as follows: Selectivity interaction (ProQinase) EUB0000171b AURKB.
The target of test [1] is Mitogen-activated protein kinase kinase kinase 10 (Homo sapiens) (UniProt Q02779). The test is described as follows: Selectivity interaction (ProQinase) EUB0000171b MAP3K10.
In test [2] the target is Cyclin-dependent kinase 9 (Homo sapiens, UniProt P50750). Conditions: at 10 µM.
The target in test [3] is Casein kinase II subunit alpha (Homo sapiens, UniProt P68400). Conditions: at 10 µM.
The target of test [4] is T1, Non-receptor tyrosine-protein kinase TYK2 (Homo sapiens, UniProt P29597). The test is described as follows: Selectivity interaction (KinomeScan (DiscoverX)) EUB0001079a TYK2. To be noted: at 1 µM.
Test [5] addresses Calcium/calmodulin-dependent protein kinase type 1G (Homo sapiens) (UniProt Q96NX5). The test is described as follows: Selectivity interaction (KinomeScan (DiscoverX)) EUB0000092b CAMK1G. Conditions: at 10 µM.
The target in test [6] is T2, Mitogen-activated protein kinase kinase kinase 7 (Homo sapiens) (UniProt O43318).
T2 sequence (whole entry): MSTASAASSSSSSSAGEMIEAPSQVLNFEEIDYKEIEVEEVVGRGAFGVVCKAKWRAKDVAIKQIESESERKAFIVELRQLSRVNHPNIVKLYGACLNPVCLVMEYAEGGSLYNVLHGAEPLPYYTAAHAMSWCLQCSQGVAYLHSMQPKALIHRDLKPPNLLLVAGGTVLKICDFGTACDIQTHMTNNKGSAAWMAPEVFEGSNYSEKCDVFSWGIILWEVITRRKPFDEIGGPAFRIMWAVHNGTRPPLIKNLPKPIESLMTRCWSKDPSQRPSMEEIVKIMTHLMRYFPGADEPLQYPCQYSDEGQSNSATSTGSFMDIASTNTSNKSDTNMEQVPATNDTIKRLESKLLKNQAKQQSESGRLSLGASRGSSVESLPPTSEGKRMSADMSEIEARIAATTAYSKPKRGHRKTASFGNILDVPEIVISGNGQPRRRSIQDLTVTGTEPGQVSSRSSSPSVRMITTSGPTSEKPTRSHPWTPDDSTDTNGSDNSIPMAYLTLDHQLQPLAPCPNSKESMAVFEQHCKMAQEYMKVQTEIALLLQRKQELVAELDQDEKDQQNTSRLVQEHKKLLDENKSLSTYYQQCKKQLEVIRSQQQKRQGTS
The test is described as follows: Selectivity interaction (KinomeScan (DiscoverX)) EUB0000666a MAP3K7. To be noted: at 10 µM.

In test [7] the test system is Tyrosine-protein kinase ABL1 (Homo sapiens), P00519 [Q252H]. The test is described as follows: (§1) Selectivity interaction (LanthaScreen Eu Kinase Binding Assay) EUB0001632a ABL1. To be noted: at 10 µM. In general terms: In TR-FRET formats the signal depends on donor and acceptor labels being close together.
The subject of test [8] is Tyrosine-protein kinase ABL1 (Homo sapiens), P00519 [H396P]. The test is described as §1. Conditions: at 10 µM.
In test [9] the test system is Tyrosine-protein kinase ABL1 (Homo sapiens), P00519 [M351T]. The test is described as §1. To be noted: at 10 µM.
Test [10] deals with Ephrin type-A receptor 5 (Homo sapiens) (UniProt P54756). The test is described as follows: Selectivity interaction (KinomeScan (DiscoverX)) EUB0000607a EPHA5. To be noted: at 10 µM.
Test [11] has as its target Calcium/calmodulin-dependent protein kinase type II subunit beta (Homo sapiens) (UniProt Q13554). The test is described as follows: Selectivity interaction (Kinase panel (Invitrogen)) EUB0000639a CAMK2B. To be noted: at 200 nM.
Test [12] concerns the target T1, Non-receptor tyrosine-protein kinase TYK2. The test is described as follows: Selectivity interaction (KinomeScan (DiscoverX)) EUB0000229b TYK2. Conditions: at 10 µM.
Test [13] addresses T3, Mitogen-activated protein kinase kinase kinase 13 (Homo sapiens) (UniProt O43283).
T3 sequence (whole entry): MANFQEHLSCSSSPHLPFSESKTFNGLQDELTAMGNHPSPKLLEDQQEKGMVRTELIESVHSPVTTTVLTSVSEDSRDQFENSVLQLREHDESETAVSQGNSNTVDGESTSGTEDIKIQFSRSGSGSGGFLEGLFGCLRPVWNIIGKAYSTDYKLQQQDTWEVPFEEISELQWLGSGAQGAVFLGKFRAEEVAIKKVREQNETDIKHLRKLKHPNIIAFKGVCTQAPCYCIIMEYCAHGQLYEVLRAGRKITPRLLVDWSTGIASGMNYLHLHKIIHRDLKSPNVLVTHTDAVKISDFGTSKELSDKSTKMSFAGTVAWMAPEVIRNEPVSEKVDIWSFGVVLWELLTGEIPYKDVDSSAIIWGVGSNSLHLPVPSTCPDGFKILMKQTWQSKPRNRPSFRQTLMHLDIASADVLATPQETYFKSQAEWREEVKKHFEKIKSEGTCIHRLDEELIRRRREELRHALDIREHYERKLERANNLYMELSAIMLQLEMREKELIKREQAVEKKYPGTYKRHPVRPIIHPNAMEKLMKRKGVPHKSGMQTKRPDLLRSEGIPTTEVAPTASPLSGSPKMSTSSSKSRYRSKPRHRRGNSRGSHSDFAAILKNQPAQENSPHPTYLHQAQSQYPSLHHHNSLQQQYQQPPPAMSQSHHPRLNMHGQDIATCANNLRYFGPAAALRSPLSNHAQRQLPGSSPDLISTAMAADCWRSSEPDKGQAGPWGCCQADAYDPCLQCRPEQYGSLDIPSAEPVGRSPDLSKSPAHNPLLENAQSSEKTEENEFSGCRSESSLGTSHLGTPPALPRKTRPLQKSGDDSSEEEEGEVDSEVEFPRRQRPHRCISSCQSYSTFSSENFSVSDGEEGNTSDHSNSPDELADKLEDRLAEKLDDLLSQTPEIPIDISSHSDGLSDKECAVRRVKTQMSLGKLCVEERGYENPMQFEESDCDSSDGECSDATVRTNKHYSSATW
The test is described as follows: Selectivity interaction (KinomeScan (DiscoverX)) EUB0000595a MAP3K13. To be noted: at 10 µM.

In test [14] the target is Casein kinase I isoform gamma-3 (Homo sapiens) (UniProt Q9Y6M4). The test is described as follows: Selectivity interaction (KinomeScan (DiscoverX)) EUB0001619a CSNK1G3. To be noted: at 1 µM.
The target in test [15] is eIF-2-alpha kinase GCN2 (Homo sapiens) (UniProt Q9P2K8). The test is described as follows: Selectivity interaction (ActivX KiNativ screen (ex vivo kinase selectivity in human PBMCs)) EUB0001619a EIF2AK4. To be noted: PBMC, at 1 µM. The format is cell-based.
Test [16] deals with Casein kinase II subunit alpha' (Homo sapiens) (UniProt P19784). The test is described as follows: Selectivity interaction (Kinase panel (KiNativ target engagement assay in Jurkat cells)) EUB0001635a CSNK2A2. The format is cell-based. Conditions: Selectivity number of off-targets 0.0, Selectivity number of targets 233.0, Source Knowledge https://www.sciencedirect.com/science/article/pii/S2451945619300674?via%3Dihub, at 1 µM.
Casein kinase II subunit alpha' (Homo sapiens), sequence (P19784 whole entry, looked up): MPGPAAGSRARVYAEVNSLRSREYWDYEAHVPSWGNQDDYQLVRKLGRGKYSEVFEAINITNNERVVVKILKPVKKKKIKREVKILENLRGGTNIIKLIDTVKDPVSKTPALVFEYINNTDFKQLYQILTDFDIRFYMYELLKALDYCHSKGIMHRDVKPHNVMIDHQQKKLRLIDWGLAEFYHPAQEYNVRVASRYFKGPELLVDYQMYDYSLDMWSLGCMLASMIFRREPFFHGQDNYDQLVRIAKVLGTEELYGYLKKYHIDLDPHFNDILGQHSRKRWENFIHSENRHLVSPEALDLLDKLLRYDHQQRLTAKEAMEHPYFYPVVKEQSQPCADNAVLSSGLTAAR

Aurora kinase B, sequence (Q96GD4 whole entry): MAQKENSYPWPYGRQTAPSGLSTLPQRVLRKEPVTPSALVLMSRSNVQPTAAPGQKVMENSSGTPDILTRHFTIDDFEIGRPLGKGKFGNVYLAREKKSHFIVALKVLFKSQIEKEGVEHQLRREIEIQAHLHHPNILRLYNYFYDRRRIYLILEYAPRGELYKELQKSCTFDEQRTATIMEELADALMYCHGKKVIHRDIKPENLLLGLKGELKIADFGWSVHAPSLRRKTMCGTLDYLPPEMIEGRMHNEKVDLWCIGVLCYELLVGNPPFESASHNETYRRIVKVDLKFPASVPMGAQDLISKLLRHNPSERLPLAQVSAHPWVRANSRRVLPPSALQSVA
Mitogen-activated protein kinase kinase kinase 10 (Homo sapiens), sequence (Q02779 whole entry, looked up): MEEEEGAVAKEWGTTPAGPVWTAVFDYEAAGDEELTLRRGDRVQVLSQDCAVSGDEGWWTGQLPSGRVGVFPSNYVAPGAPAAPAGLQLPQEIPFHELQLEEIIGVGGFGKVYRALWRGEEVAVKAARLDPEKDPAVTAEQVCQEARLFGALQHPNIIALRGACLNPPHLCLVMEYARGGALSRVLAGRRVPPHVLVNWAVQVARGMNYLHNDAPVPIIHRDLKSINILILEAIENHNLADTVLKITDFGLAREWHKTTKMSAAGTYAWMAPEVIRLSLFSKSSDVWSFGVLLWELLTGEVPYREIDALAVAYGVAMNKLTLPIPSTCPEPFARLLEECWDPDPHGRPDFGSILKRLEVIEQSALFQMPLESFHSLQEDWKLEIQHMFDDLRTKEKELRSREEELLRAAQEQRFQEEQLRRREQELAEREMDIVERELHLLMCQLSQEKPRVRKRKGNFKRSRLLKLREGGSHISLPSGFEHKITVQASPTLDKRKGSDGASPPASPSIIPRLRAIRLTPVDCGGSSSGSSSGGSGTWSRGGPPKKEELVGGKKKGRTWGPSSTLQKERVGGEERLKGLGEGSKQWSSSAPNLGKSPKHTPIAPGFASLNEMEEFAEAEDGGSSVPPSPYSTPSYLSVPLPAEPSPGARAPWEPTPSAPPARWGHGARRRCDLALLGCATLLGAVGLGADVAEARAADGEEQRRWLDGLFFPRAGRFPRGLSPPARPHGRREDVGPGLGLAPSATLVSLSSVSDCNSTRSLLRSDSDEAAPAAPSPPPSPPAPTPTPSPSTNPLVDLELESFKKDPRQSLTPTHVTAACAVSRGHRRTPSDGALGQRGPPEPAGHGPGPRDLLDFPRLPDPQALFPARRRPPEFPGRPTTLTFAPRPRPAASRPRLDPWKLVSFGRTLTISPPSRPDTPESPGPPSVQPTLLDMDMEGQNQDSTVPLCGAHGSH
T1 sequence (P29597 whole entry): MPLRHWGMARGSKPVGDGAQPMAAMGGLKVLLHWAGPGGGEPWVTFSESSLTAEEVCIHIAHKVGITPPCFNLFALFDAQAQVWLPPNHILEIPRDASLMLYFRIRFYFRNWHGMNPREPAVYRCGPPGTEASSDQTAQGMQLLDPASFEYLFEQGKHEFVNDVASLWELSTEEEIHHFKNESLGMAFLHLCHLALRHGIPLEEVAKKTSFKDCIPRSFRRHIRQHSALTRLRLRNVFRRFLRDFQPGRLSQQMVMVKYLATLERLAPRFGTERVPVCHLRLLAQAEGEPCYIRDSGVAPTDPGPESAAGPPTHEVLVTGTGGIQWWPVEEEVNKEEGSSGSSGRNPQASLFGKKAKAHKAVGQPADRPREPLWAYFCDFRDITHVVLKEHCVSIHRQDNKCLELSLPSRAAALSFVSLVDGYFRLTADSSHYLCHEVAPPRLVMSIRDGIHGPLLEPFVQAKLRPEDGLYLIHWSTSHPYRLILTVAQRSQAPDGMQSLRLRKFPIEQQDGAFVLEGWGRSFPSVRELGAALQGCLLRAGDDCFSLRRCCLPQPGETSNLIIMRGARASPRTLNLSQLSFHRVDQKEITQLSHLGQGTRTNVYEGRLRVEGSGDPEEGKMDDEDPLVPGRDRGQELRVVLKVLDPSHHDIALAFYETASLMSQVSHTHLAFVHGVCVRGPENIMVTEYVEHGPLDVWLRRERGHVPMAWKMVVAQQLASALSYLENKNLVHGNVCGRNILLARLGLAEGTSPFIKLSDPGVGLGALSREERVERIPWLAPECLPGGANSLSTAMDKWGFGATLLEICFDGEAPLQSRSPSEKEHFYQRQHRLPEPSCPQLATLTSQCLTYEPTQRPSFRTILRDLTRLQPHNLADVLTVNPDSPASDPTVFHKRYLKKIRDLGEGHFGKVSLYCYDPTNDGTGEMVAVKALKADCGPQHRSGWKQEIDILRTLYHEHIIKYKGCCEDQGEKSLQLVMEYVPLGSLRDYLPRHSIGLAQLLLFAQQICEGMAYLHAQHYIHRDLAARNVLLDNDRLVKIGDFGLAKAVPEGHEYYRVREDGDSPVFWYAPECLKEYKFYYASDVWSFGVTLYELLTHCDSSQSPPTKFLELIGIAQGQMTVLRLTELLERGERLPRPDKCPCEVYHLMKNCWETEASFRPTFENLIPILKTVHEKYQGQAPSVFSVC
eIF-2-alpha kinase GCN2 (Homo sapiens), sequence (Q9P2K8 whole entry): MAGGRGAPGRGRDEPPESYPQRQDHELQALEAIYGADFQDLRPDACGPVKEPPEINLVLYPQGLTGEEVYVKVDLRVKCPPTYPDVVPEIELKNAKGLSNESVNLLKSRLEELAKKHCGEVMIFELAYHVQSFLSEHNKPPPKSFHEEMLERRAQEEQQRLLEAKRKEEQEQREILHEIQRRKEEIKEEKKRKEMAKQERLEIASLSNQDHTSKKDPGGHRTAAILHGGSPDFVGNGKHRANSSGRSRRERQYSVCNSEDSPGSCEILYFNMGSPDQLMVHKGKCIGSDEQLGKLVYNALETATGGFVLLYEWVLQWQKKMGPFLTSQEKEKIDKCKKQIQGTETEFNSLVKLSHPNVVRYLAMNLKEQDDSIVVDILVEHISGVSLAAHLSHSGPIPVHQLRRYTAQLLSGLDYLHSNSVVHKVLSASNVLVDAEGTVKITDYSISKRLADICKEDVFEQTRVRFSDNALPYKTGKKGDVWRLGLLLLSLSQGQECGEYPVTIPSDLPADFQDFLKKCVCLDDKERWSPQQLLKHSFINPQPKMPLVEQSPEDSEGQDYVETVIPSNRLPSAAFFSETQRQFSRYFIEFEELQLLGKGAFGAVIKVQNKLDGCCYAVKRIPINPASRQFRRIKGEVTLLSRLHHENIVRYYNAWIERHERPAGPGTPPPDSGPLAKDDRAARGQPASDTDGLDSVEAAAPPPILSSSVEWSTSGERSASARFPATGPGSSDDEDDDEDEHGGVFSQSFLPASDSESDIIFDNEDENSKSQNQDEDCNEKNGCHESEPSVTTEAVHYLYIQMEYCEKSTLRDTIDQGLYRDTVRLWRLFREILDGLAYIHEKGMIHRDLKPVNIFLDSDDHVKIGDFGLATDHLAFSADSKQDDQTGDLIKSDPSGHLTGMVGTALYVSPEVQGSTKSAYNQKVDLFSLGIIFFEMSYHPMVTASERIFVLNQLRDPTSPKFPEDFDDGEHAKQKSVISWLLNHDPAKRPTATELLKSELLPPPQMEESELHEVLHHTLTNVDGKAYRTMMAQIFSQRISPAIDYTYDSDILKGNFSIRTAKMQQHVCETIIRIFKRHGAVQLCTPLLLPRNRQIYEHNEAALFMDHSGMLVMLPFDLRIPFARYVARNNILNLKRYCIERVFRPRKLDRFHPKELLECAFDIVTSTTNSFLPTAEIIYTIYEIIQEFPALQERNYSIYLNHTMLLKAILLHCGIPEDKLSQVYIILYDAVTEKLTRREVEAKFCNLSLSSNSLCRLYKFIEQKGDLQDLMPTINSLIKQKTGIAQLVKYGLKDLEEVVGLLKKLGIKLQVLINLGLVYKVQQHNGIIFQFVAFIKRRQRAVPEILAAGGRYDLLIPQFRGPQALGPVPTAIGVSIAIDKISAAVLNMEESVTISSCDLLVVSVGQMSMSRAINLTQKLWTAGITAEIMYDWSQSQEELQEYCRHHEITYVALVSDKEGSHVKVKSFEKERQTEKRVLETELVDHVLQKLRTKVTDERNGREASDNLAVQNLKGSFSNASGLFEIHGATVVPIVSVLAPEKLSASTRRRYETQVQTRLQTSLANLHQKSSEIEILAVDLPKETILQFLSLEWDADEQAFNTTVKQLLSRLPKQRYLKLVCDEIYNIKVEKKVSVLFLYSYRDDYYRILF
Casein kinase I isoform gamma-3 (Homo sapiens), sequence (Q9Y6M4 whole entry, looked up, canonical isoform): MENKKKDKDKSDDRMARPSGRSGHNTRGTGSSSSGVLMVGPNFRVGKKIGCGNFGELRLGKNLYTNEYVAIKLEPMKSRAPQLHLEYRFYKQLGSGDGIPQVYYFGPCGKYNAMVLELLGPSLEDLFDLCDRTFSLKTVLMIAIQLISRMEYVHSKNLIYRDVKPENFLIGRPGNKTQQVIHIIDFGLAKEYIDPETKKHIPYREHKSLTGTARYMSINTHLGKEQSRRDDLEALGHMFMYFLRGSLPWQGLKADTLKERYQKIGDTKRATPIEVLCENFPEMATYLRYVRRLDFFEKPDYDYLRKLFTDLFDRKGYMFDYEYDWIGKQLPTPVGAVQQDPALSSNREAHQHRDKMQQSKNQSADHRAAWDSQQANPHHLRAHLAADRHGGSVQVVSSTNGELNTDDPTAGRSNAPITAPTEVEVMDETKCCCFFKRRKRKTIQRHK

As for `C=CC(=O)Nc1cccc(C(=O)Nc2ccc(Nc3cc(-c4[nH]c(SC)nc4C)ccn3)cc2)c1`, the % of control was 73% on Aurora kinase B (at 1 µM), 40% on Aurora kinase B (at 5 µM), 27% in test [1] (at 1 µM) and 4% in test [1] (at 5 µM).

With `Cc1cc([C@@H](C)Nc2ccccc2C(=O)O)c2nc(N3CCOCC3)cc(=O)n2c1` [AZD-6482], the % of control in test [2] and in test [3] was 100% in each case. `Nc1cnc(N2CCc3cc(S(=O)(=O)Nc4c(F)cc(Cl)cc4F)cc(N4CCCC4=O)c32)nc1` [TP-020n] displayed a % of control in test [4] of 100%. As for `CCC(=O)N1CCN(c2ccc(-n3c(=O)ccc4cnc5ccc(-c6cnc7ccccc7c6)cc5c43)cc2C(F)(F)F)CC1`, the % of control in test [5] turned out to be 74%.

In the case of `O=C(NOC[C@H](O)CO)c1ccc(F)c(F)c1Nc1ccc(I)cc1F`, the % of control in test [6] came out at 75%. For `Cn1cc(-n2cnc3c(NCc4nc5cc(Cl)c(Cl)cc5[nH]4)nc(N4CCOCC4)nc32)cn1`, the % of inhibition is -18.3% in test [7], -3.27% in test [8] and -10.1% in test [9]. On to `CNC(=O)Nc1ccc(-c2nc(N3CC4CCC(C3)O4)c3cnn(C4CCC5(CC4)OCCO5)c3n2)cc1`, for which the % of control in test [10] is 92%.

Regarding `CC[C@@H]1[C@H](F)C(=O)N[C@@H]1COc1nccc2cc(C(N)=O)c(OC)cc12` [ZIMLOVISERTIB], the % of inhibition in test [11] turned out to be 10.8%. Compound `COc1cc(N(C)c2ccnc3ccc(C(F)(F)F)cc23)cc(OC)c1OC` yielded a % binding in test [12] of 89%. `COCC(=O)NC/C=C/c1ccc2ncnc(Nc3ccc(Oc4ccc(C)nc4)c(C)c3)c2c1` [CP-724714]: the % of control in test [13] stood at 80%.

As to `N#Cc1cccc(-c2c[nH]c3ncnc(N4CCOCC4)c23)c1`, the % of control in [14] came to 100%. Further, the % of inhibition in test [15] was determined as 22%. Turning to `C=CC(=O)Nc1ccc(C(=O)Nc2[nH]nc3c2CN(C(=O)N[C@H](CN(C)C)c2ccccc2)C3(C)C)cc1`, in [16], the % of engagement was -0.9%.
